From PubChem BioAssay (NCI)
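48-hour exposure; five concentrations; linearly interpolated endpoints. TGI marks complete inhibition of growth.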

Key:
Test in all cases: DTP human tumour cell line panel, 48 h
A498 renal = system: A498 renal
ACHN renal = system: ACHN renal
HS 578T breast = system: HS 578T breast
MDA-N = system: MDA-N
NCI-H522 lung = system: NCI-H522 lung
NCI/ADR-RES ovarian = system: NCI/ADR-RES ovarian
PC-3 prostate = system: PC-3 prostate
RXF 393 renal = system: RXF 393 renal
SK-MEL-28 melanoma = system: SK-MEL-28 melanoma
SK-MEL-5 melanoma = system: SK-MEL-5 melanoma
SNB-75 CNS = system: SNB-75 CNS

SMILES	TGI (A498 renal) [µM]	TGI (ACHN renal) [µM]	TGI (HS 578T breast) [µM]	TGI (MDA-N) [µM]	TGI (NCI-H522 lung) [µM]	TGI (NCI/ADR-RES ovarian) [µM]	TGI (PC-3 prostate) [µM]	TGI (RXF 393 renal) [µM]	TGI (SK-MEL-28 melanoma) [µM]	TGI (SK-MEL-5 melanoma) [µM]	TGI (SNB-75 CNS) [µM]
COC(=O)CC(C#N)(OP1(=O)OC(c2ccccc2)C(C)N1C)c1ccccc1 (configuration not stated)	> 100	59.8	> 100	75.4	> 100	> 100	> 100	52.3	> 100	> 100	> 100
Nc1ccc2c(c1)N(C(=O)c1cc3cc(NC(=O)c4cc5ccccc5o4)ccc3[nH]1)CC2CCl (configuration not stated)	0.544	11.6	0.696	0.512		0.338	12.2	0.0496	0.502		0.469
CCCCc1c(N(C)C)c(OC(C)=O)c(-c2cn(C)c3ccccc23)oc1=O	81.4	> 100	> 100	44.8	49.5	56.3	50.9	> 100	57.9	26.8	86
CC1=CC(C)C/C=C/C2C3OC3(C)C(C)C3C(Cc4c[nH]c5ccccc45)NC(=O)C23C(=O)C=CC(=O)C1O (configuration not stated)	0.935	2.73	56.5	22.6	8.03	68.2	30.1	2.94	38.2	24.4	8.44
Cc1cc(C)n2nc3nc(N)c(C#N)c(-c4ccccc4)c3c2n1	> 100	> 100	> 100	> 100	> 100	> 100	> 100	> 100	> 100	> 100	
OC1(C(F)(F)F)OCCN=C1C(F)(F)F (configuration not stated)	> 100	> 100	81.3	> 100	> 100	> 100	> 100	> 100	> 100	> 100	> 100
OC1[C@@H]2[C@@H](O)[C@H](O)[C@@H](O)N2C[C@@H]1O (some centres not stated)	> 100	> 100	> 100	> 100	> 100	> 100	> 100	> 100	> 100	> 100	> 100
COc1cc(C2SCC(=O)N2c2ccccn2)cc(OC)c1OC (configuration not stated)	> 100	> 100	> 100	41.6	> 100	> 100	> 100		> 100	> 100	
COC(=O)C1=C(C)NC2=C(C(=O)c3ccccc32)C1c1cn(-c2ccccc2)nc1-c1ccccc1 (configuration not stated)	> 100	> 100	> 100	> 100	> 100	> 100	> 100	> 100	> 100	> 100	> 100
CC(=O)N(C)c1ccc(Nc2cc(C)[nH]c3ccc4ncnc4c23)cc1	25.2	16.3	35.5	23.9	21.6	453	18	22.9	36.5	17.7	30
C=C1C(=O)C[C@H]2C(=C)C(=O)O[C@@H]2C2C1CC[C@@]2(C)O (some centres not stated)	> 100	25	> 100	77.8	41.4	64.2	> 100	43.9	85.5	> 100	> 100
CCOC(=O)c1c(NC(=O)c2cccs2)sc2c1CCCC2	> 96.3	> 100	76.9	> 100	> 100	> 100	> 100	30.8	> 100	> 100	81.8
Nc1c2c(nc3cc(F)c(F)cc13)CCC2	61.2	> 100	> 100	> 100	> 100	> 100	> 100	> 100	> 100	> 100	> 100
COc1ccc(N2C(=O)C(=O)N(c3ccccc3[N+](=O)[O-])C2=S)cc1	77.5	74.8	84	74.2	24.4	64.2	> 100	52.8	> 100	32.5	> 100
Nc1ccc(Oc2ccc(C34CC5CC6C3CC3CC4C(C5)C6(c4ccc(Oc5ccc(N)cc5)cc4)C3)cc2)cc1	55.7	> 100	> 67.5	19.1	47.7	> 100	51.7	47.8	> 81.2	5.27	
Nc1ccc(-c2nc3cc(F)ccc3s2)cc1Cl	> 39.3	> 85	> 90.4	> 100	> 100	> 100	> 100	> 100	> 100	> 100	51.8
CCCn1c2ccccc2c2ccc3c(c21)C(=O)C=CC3=O	> 10	3.59	> 10	6.43	3.54	> 6.93	> 8.03	3.87	> 3.16	> 10	> 10
C[N+](CCCl)(CCCl)Cc1cccc2cccc([N+](=O)[O-])c12	> 100	> 100	> 100	> 100	> 100	> 100	> 100	> 100	> 100	> 100	> 100
O=C1NC(NNc2ccccc2)=N/C1=C\c1ccccc1O	> 100	> 100	> 100	> 100	> 100	> 100	82	> 100	> 100		> 100
